The numbers were not newly measured in article PMC9316000, “Preclinical Drug Pharmacokinetic, Tissue Distribution and Excretion Profiles of the Novel Limonin Derivate HY-071085 as an Anti-Inflammatory and Analgesic Candidate in Rats and Beagle Dogs” (Pharmaceuticals, 2022), which cites them from elsewhere.

Read-outs that look alike come from different tables or passages of the source.

On the set-up of data set [1]: method as in earlier work. Conditions: Temp 25℃; cited from earlier work.
On the set-up of data set [2]: method as in earlier work. Conditions: Temp 25℃, pH 7.0; cited from earlier work.
On the set-up of data set [3]: method as in earlier work. The conditions noted are these: Temp 25℃; cited from earlier work. This is another data set of the same source.
Details of data set [4]: method as in PMID 16435568. Conditions: cited from earlier work.

As usually defined, the LogD is the decadic logarithm of the distribution of all forms, ionised or not, between an organic phase and buffer at a given pH. What is called logP is the decadic logarithm of the partition coefficient of the neutral form, usually between octanol and water. Take `CC1(C)O[C@H]2CC(=O)OC[C@]23[C@H]2CC[C@@]4(C)[C@H](c5ccoc5)OC(=O)[C@H]5O[C@]54[C@]2(C)C(=O)C[C@@H]13` [Limonin]: in data set [1], the Intrinsic solubility is 220 µg/mL. Also, in data set [2], the LogD is 0.47. Besides, the logP in data set [3] is reported as 0.474. The entries for the “exposure of female rats relative to male rats” value in data set [4] (intravenous administration) and in data set [4] (oral administration) were “three-fold higher” and 50 fold, respectively.
